Experimental data as given in patent US9156860B2, “Boron-containing small molecules” (Anacor Pharmaceuticals, Inc., priority 2011, dated 2015).

These compounds were tested on Lone star tick larvae (Amblyomma americanum) (assay: Larval immersion microassay against larval-stage Lone star ticks). Conditions: Amblyomma americanum, 24 h, read-out: activity (percent larval mortality).
Method: The larval immersion microassay was conducted as described in detail in White, et al., J. Med. Entomol. […] Compounds of the invention were formulated in dimethylsulfoxide (DMSO) to prepare a stock solution at a concentration of at least 10 mM. […] Approximately 30-50 Lone star tick larvae (Amblyomma americanum) were submerged into each well containing compounds. After a 30 minute immersion period, larvae were removed with a wide-bore pipette tip in 0.05 ml of fluid, dispensed into a commercial paper tissue biopsy bag which was sealed at the top with a plastic dialysis clip, inverted and allowed to air dry for 60 minutes. Bags containing larvae were then incubated at approximately 27 degrees Celsius and >90% relative humidity. After 24 hours, bags were opened, live and dead larvae were counted and percent larval mortality was calculated.
7 contains one chiral center, and is therefore a racemic mixture comprised of approximately 50% R- and 50% S-enantiomer. In vitro and surrogate animal (rat) studies were conducted to evaluate the biological activity of the R- and S-enantiomers of 7. For the in vitro study, larvae of the Lone star tick (Amblyomma americanum) were exposed to 17 (S-enantiomer) and 18 (R-enantiomer) using the larval immersion microassay at a concentration of no greater than 0.3 mM. Following exposure, larvae were removed, transferred to a tissue biopsy bag and incubated at approximately 27 degrees Celsius and >90% relative humidity. After 24 hours, biopsy bags were opened and the numbers of live and dead larvae were determined.
CC1(C)OB(O)c2ccc(C3=NO[C@@](c4cc(Cl)cc(Cl)c4)(C(F)(F)F)C3)cc21 [Compound 3, (S)-5-(5-(3,5-dichlorophenyl)-5-(trifluoromethyl)-4,5-dihydroisoxazol-3-yl)-3,3-dimethyl benzo[c][1,2]oxaborol-1(3H)-ol] showed a mortality at 300 µM of no less than 80%.
Cc1c(Cl)cc(C2(C(F)(F)F)CC(c3ccc4c(c3)C(C)(C)OB4O)=NO2)cc1Cl (stereo not shown) [Compound 9, 5-(5-(3,5-Dichloro-4-methylphenyl)-5-(trifluoromethyl)-4,5-dihydroisoxazol-3-yl)-3,3-dimethylbenzo[c][1,2]oxaborol-1(3H)-ol] gave a mortality at 300 µM of no less than 80%.
CC1(C)OB(O)c2ccc(C3=NO[C@@](c4cc(Cl)c(F)c(Cl)c4)(C(F)(F)F)C3)cc21 [Compound 28, (S)-5-(5-(3,5-Dichloro-4-fluorophenyl)-5-(trifluoromethyl)-4,5-dihydroisoxazol-3-yl)-3,3-dimethylbenzo[c][1,2]oxaborol-1(3H)-ol] was tested, and the mortality at 300 µM was no less than 80%.
With CC1(C)OB(O)c2ccc(C3=NOC(c4cc(Cl)c(C(F)(F)F)c(Cl)c4)(C(F)(F)F)C3)cc21 (stereo not shown) [Compound 10, 5-(5-(3,5-Dichloro-4-(trifluoromethyl)phenyl)-5-(trifluoromethyl)-4,5-dihydroisoxazol-3-yl)-3,3-dimethyl-benzo[c][1,2]oxaborol-1(3H)-ol] the mortality at 300 µM was no less than 80%.
Work on CC1(C)OB(O)c2ccc(C3=NOC(c4cc(Cl)cc(Cl)c4)(C(F)(F)F)C3)cc21 (stereo not shown) [Compound 2, 5-(5-(3,5-Dichlorophenyl)-5-(trifluoromethyl)-4,5-dihydroisoxazol-3-yl)-3,3-dimethyl-benzo[c][1,2]oxaborol-1(3H)-ol] yielded a mortality at 300 µM of no less than 80%.
Work on CC1(C)OB(O)c2ccc(C3=NOC(c4cc(C(F)(F)F)cc(C(F)(F)F)c4)(C(F)(F)F)C3)cc21 (stereo not shown) [Compound 14, 5-(5-(3,5-Bis(trifluoromethyl)phenyl)-5-(trifluoromethyl)-4,5-dihydroisoxazol-3-yl)-3,3-dimethylbenzo[c][1,2]oxaborol-1(3H)-ol] yielded a mortality at 300 µM of no less than 80%.
For COc1c(Cl)cc(C2(C(F)(F)F)CC(c3ccc4c(c3)C(C)(C)OB4O)=NO2)cc1Cl (stereo not shown) [Compound 22, 5-(5-(3,5-Dichloro-4-methoxyphenyl)-5-(trifluoromethyl)-4,5-dihydroisoxazol-3-yl)-3,3-dimethylbenzo[c][1,2]oxaborol-1(3H)-ol], the mortality at 300 µM was no less than 80%.
CC1(C)OB(O)c2ccc(C3=NOC(c4cc(Cl)c(OC(F)(F)F)c(Cl)c4)(C(F)(F)F)C3)cc21 (stereo not shown) [Compound 12, 5-(5-(3,5-Dichloro-4-(trifluoromethoxy)phenyl)-5-(trifluoromethyl)-4,5-dihydro-isoxazol-3-yl)-3,3-dimethylbenzo[c][1,2]oxaborol-1(3H)-ol] gave a mortality at 300 µM of no less than 80%.
Work on CC1(C)OB(O)c2ccc(C3=NOC(c4cc(Cl)cc(C(F)(F)F)c4)(C(F)(F)F)C3)cc21 (stereo not shown) [Compound 6] yielded a mortality at 300 µM of no less than 80%.
CC1(C)OB(O)c2ccc(C3=NOC(c4cc(Cl)c(Br)c(Cl)c4)(C(F)(F)F)C3)cc21 (stereo not shown) [Compound 21, 5-(5-(4-Bromo-3,5-dichlorophenyl)-5-(trifluoromethyl)-4,5-dihydroisoxazol-3-yl)-3,3-dimethylbenzo[c][1,2]oxaborol-1(3H)-ol] gave a mortality at 300 µM of no less than 80%.
Work on CC1(C)OB(O)c2ccc(C3=NOC(c4cc(Cl)c(C(F)F)c(Cl)c4)(C(F)(F)F)C3)cc21 (stereo not shown) [Compound 11, 5-(5-(3,5-Dichloro-4-(difluoromethyl)phenyl)-5-(trifluoromethyl)-4,5-dihydroisoxazol-3-yl)-3,3-dimethyl-benzo[c][1,2]oxaborol-1(3H)-ol] yielded a mortality at 300 µM of no less than 80%.
CC1(C)OB(O)c2ccc(C3=NOC(c4cc(Cl)c(Cl)c(Cl)c4Cl)(C(F)(F)F)C3)cc21 (stereo not shown) [Compound 34, 3,3-Dimethyl-5-(5-(2,3,4,5-tetrachlorophenyl)-5-(trifluoromethyl)-4,5-dihydroisoxazol-3-yl)benzo[c][1,2]oxaborol-1(3H)-ol] was tested, and the mortality at 300 µM was no less than 80%.
Work on OB1OCc2cc(C3=NOC(c4cc(Cl)cc(Cl)c4)(C(F)(F)F)C3)ccc21 (stereo not shown) [Compound 1, 5-(5-(3,5-Dichlorophenyl)-5-(trifluoromethyl)-4,5-dihydroisoxazol-3-yl)benzo[c][1,2]oxaborol-1(3H)-ol] yielded a mortality at 300 µM of no less than 80%.
CC1(C)OB(O)c2cc(F)c(C3=NOC(c4cc(Cl)c(Cl)c(Cl)c4)(C(F)(F)F)C3)cc21 (stereo not shown) [Compound 42, 6-Fluoro-3,3-dimethyl-5-(5-(3,4,5-trichlorophenyl)-5-(trifluoromethyl)-4,5-dihydroisoxazol-3-yl)benzo[c][1,2]oxaborol-1(3H)-ol] showed a mortality at 300 µM of no less than 80%.
With CC1(C)OB(O)c2cc(F)c(C3=NOC(c4cc(Cl)cc(Cl)c4)(C(F)(F)F)C3)cc21 (stereo not shown) [Compound 41] the mortality at 300 µM was no less than 80%.
In the case of CC1(C)OB(O)c2ccc(C3=NOC(c4cc(Cl)c(F)c(Cl)c4F)(C(F)(F)F)C3)cc21 (stereo not shown) [Compound 35], the mortality at 300 µM was no less than 80%.

Same assay, conditions: Amblyomma americanum; concentration of no greater than 0.3 mM; 30 minute immersion; counted after 24 hours; read-out: activity (percent larval mortality)
With CC1(C)OB(O)c2ccc(C3=NOC(c4ccc(Cl)c(Cl)c4)(C(F)(F)F)C3)cc21 (stereo not shown) [Compound 23, 5-(5-(3,4-Dichlorophenyl)-5-(trifluoromethyl)-4,5-dihydroisoxazol-3-yl)-3,3-dimethyl-benzo[c][1,2]oxaborol-1(3H)-ol] the mortality at 300 µM was no less than 80%.
In the case of CC1(C)OB(O)c2ccc(C3=NOC(c4cc(F)c(Cl)c(F)c4)(C(F)(F)F)C3)cc21 (stereo not shown) [Compound 30, 5-(5-(4-Chloro-3,5-difluorophenyl)-5-(trifluoromethyl)-4,5-dihydroisoxazol-3-yl)-3,3-dimethylbenzo[c][1,2]oxaborol-1(3H)-ol], the mortality at 300 µM was no less than 80%.
CC1(C)OB(O)c2ccc(C3=NOC(c4cc(F)c(Cl)c(Cl)c4)(C(F)(F)F)C3)cc21 (stereo not shown) [Compound 26, 5-(5-(3,4-Dichloro-5-fluorophenyl)-5-(trifluoromethyl)-4,5-dihydroisoxazol-3-yl)-3,3-dimethylbenzo[c][1,2]oxaborol-1(3H)-ol] gave a mortality at 300 µM of no less than 80%.
CC1(C)OB(O)c2ccc(C3=NOC(c4ccc(F)c(C(F)(F)F)c4)(C(F)(F)F)C3)cc21 (stereo not shown) [Compound 24, 5-(5-(4-Fluoro-3-(trifluoromethyl)phenyl)-5-(trifluoromethyl)-4,5-dihydroisoxazol-3-yl)-3,3-dimethylbenzo[c][1,2]oxaborol-1(3H)-ol] gave a mortality at 300 µM of no less than 80%.
CC1(C)OB(O)c2ccc(C3=NOC(c4cc(Br)c(F)c(Br)c4)(C(F)(F)F)C3)cc21 (stereo not shown) [Compound 32, 5-(5-(3,5-Dibromo-4-fluorophenyl)-5-(trifluoromethyl)-4,5-dihydroisoxazol-3-yl)-3,3-dimethylbenzo[c][1,2]oxaborol-1(3H)-ol] was tested, and the mortality at 300 µM was no less than 80%.
Compound CC1(C)OB(O)c2ccc(C3=NOC(c4cc(Br)c(Cl)c(Br)c4)(C(F)(F)F)C3)cc21 (stereo not shown) [Compound 27, 5-(5-(3,5-Dibromo-4-chlorophenyl)-5-(trifluoromethyl)-4,5-dihydroisoxazol-3-yl)-3,3-dimethylbenzo[c][1,2]oxaborol-1(3H)-ol] has a mortality at 300 µM of no less than 80%.
CC1(C)OB(O)c2ccc(C3=NOC(c4cc(Br)cc(Br)c4)(C(F)(F)F)C3)cc21 (stereo not shown) [Compound 5, 5-(5-(3,5-Dibromophenyl)-5-(trifluoromethyl)-4,5-dihydroisoxazol-3-yl)-3,3-dimethyl-benzo[c][1,2]oxaborol-1(3H)-ol] gave a mortality at 300 µM of no less than 80%.
Compound CC1(C)OB(O)c2ccc(C3=NOC(c4cc(F)c(F)c(Cl)c4)(C(F)(F)F)C3)cc21 (stereo not shown) [Compound 25, 5-(5-(3-Chloro-4,5-difluorophenyl)-5-(trifluoromethyl)-4,5-dihydroisoxazol-3-yl)-3,3-dimethylbenzo[c][1,2]oxaborol-1(3H)-ol] has a mortality at 300 µM of no less than 80%.
Work on CC1(C)OB(O)c2ccc(C3=NOC(c4ccc(F)c(Cl)c4)(C(F)(F)F)C3)cc21 (stereo not shown) [Compound 19, 5-(5-(3-Chloro-4-fluorophenyl)-5-(trifluoromethyl)-4,5-dihydroisoxazol-3-yl)-3,3-dimethylbenzo[c][1,2]oxaborol-1(3H)-ol] yielded a mortality at 300 µM of no less than 80%.
